Measurements: US20040242550A1, “Means and method for hormonal contraception” (priority 2001, published 2004)

Test: conversion factors for progestogens: amount equivalent to a given amount of levonorgestrel
Conditions: for equivalent to 30 μg levonorgestrel / equivalent to 750 μg levonorgestrel: estimated amount of progestogen; for Conversion factor: relative to levonorgestrel, for guidance, estimate
From the text: In order to determine for a specific biogenic estrogen or synthetic estrogen the amounts that are equivalent to a cited amount of ethinyl estradiol or 17beta-estradiol, the method described by Allen and Doisy may suitably be used (Allen A., Doisy E. A., “An ovarian hormone. Preliminary report on its localization, extraction and partial purification, and action in test animals. JAMA (1923), 81, 819-821). Similarly, in order to determine for a given progestogen the amount equivalent to cited amount of levonorgestrel the method originally described by McPhail can be used (Mc Phail M. K. “The assay of progestin” J Physiol (1934), 83, 145-156). A more recent description of this method can be found in an article written by Overbeek G. A., de Visser J. “A new substance with progestational activity”, Acta Endocrinol (1956), 22, 318-329. It is noted that the aforementioned methods will provide useful indications about the anticipated estrogen potency or progestogen potency of a particular hormone. However, to accurately determine the equivalent amounts that are referred to above, it is advisable to additionally conduct in vivo studies in human females.
For guidance the table below provides the conversion factors for a number of progestogens that may suitably be used in the method of the invention. These conversion factors may be used to calculate, for each progestogen mentioned in the table, an estimate of the amount of said progestogen which is equivalent to a given amount of levonorgestrel.

Compound | equivalent to 30 μg levonorgestrel | equivalent to 750 μg levonorgestrel | Conversion factor
C#C[C@]1(OC(C)=O)CC[C@H]2[C@@H]3CCC4=CC(=NO)CC[C@@H]4[C@H]3CC[C@@]21CC (mixture of isomers) [norgestimate] | 51 µg | 1.275 mg | 1.7
C[C@]12CCC(=O)C=C1[C@@H]1C[C@@H]1[C@H]1[C@@H]3[C@@H]4C[C@@H]4[C@@]4(CCC(=O)O4)[C@@]3(C)CC[C@@H]12 [drospirenone] | 600 µg | 15 mg | 20
CC(=O)[C@H]1CC[C@H]2[C@@H]3C=CC4=CC(=O)CC[C@@]4(C)[C@@H]3CC[C@]12C [dydrogesterone] | 4000 µg | 100 mg | 133
C#C[C@]1(O)CC[C@H]2[C@@H]3CCC4=CC(=O)CC[C@@H]4[C@H]3CC[C@@]21C [norethisterone] | 210 µg | 5.25 mg | 7
